Measured values reported in patent publication US20030065039A1, “Biologically active 1,3-bis-aromatic-prop-2-en-1-ones, 1,3-bis-aromatic-propan-1-ones, and 1,3-bis-aromatic-prop-2-yn-1-ones” (Statens Serum Institute, priority 1997, published 2003).
Like-named read-outs stand apart in the source and are kept apart here.

Columns and labels:
Vero cell cultures = experiment: Cytotoxicity in Vero cell cultures; format: cell-based; conditions: Vero cells; values given as fractions, footnote a not given
Source text: (§1) In the following is reported the results from a Vero cell culture infected with different viruses. The cell culture used as well as the methods applied are well known to a person skilled in the art.

Coxsackie virus B4 = experiment: Antiviral activity in Vero cell cultures; format: cell-based; conditions: Vero cells; values given as fractions
Description: (§2) IC50 values are determined by the virus plaque formation and/or the virus cytopathic assay using standard methods well-known in the art.
as §1

Parainfluenza-3 Virus = experiment: Antiviral activity in Vero cell cultures; format: cell-based; conditions: Vero cells; values given as fractions
Description: as §2, §1

Reovirus-1 = experiment: Antiviral activity in Vero cell cultures; format: cell-based; conditions: Vero cells; values given as fractions
Description: as §2, §1

Simliki forest virus = experiment: Antiviral activity in Vero cell cultures; format: cell-based; conditions: Vero cells; values given as fractions
Description: as §2, §1

Sindbis virus = experiment: Antiviral activity in Vero cell cultures; format: cell-based; conditions: Vero cells; values given as fractions
Description: as §2, §1

[1] = test system: cytomegalovirus AD-169 strain; experiment: Activity against cytomegalovirus in HEL cells (plaque formation); format: cell-based; conditions: virus plaque formation reduced by 50%, 100 PFU, values given as fractions
Description: as §2

[2] = test system: cytomegalovirus Davis strain; experiment: as above; format: cell-based; conditions: virus plaque formation reduced by 50%, 100 PFU, values given as fractions
Description: as §2

[3] = test system: human embryonic lung (HEL) cells; experiment: Cytotoxicity in human embryonic lung (HEL) cells; format: cell-based; conditions: HEL cell growth reduced by 50%; values given as fractions
[4] = Preliminary 14 days oral toxicity study in rats; format: in vivo; conditions: highest dose level 1000 mg/kg/day
Description: A preliminary 14 days oral toxicity study in rats was carried out with 6 compounds. Observations included clinical signs, body weights, food intake, haematology, clinical chemistry and macroscopic pathology.

Leishmania promastigotes = Leishmania promastigotes Assay; format: cell-based; conditions: Leishmania; promastigotes, 3H-thymidine uptake; read-out: Leishmania IC50 ± SD
Procedure, shortened: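 L. major (WHO Iran vaccine strain) and L. donovani MHOM/KE/85/NLB 274 promastigotes (3×10^6/ml, day 3 and 6 cultures) exposed to compound 2 h at 26 °C, then 3H-thymidine 18 h; incorporation counted by scintillation. Microscopic counts and flagellar motility also assessed.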

human lymphocytes = experiment: Lymphocyte Proliferation Assay; format: cell-based; conditions: Lymphocyte; PHA provoked proliferation of human lymphocytes; read-out: Lymphocytes IC50 ± SD
Procedure, shortened: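 Ficoll-isolated human blood mononuclear cells (0.63×10^5/ml) in RPMI 1640 with 5% FCS were cultured in triplicate with test compound and PHA or PPD for 3 or 7 days. Proliferation measured by ^3H-thymidine incorporation over the final 24 h; triplicate median recorded.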

Plasmodium falciparum = Plasmodium falciparum Assay; format: cell-based; conditions: Plasmodium falciparum; 3-H-hypoxanthine incorporation, 48 hours; read-out: Plasmodium IC50 ± SD
Procedure, shortened: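 Parasitized erythrocytes (~1% parasitemia, 5×10^8/ml) cultured 48 h in RPMI with test compound, with 3H-hypoxanthine added for the last 24 h. Growth inhibition read as 3H-hypoxanthine incorporation into parasite DNA by liquid scintillation; uninfected and untreated infected cultures run in parallel.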

mouse lymphoma tk = experiment: Mouse lymphoma tk assay
Source text: Following selection of SBC-35ma (3,5-dimethoxy-4′-allyloxychalcone) as a development candidate, this compound was studied in vitro using the chromosomal aberration assay with CHO cells and the mouse lymphoma tk assay.
In the screening design, three known drugs were included, namely chloroquine, pyrimethamine and artesunate.

[5] = target: T1, succinate dehydrogenase of Helicobacter pylori (Helicobacter pylori, UniProt O06913); format: biochemical
T1 construct: endogenous in cells; host or cells: Helicobacter pylori (preparation for the SDH measurement not described; sonicate mentioned for FRD)
T1 sequence (O06913 1-714): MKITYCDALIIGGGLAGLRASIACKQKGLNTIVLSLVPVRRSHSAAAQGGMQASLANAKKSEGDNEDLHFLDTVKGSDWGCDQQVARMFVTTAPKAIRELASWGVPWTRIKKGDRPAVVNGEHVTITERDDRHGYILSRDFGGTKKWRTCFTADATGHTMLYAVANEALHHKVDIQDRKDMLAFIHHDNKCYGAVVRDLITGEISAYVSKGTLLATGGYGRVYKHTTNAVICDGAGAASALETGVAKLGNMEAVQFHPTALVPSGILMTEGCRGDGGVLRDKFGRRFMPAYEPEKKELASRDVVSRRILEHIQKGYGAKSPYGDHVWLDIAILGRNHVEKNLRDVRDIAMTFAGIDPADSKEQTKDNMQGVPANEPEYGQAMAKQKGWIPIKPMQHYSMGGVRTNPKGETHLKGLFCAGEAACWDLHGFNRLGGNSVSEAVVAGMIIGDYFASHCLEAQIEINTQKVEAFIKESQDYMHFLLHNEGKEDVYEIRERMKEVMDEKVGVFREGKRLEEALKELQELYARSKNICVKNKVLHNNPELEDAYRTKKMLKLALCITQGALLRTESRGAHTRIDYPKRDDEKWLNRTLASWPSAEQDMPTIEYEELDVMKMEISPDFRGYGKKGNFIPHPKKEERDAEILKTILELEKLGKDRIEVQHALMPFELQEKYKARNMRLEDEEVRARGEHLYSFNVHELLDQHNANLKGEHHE
T1 sequence (O06914 1-245 partner): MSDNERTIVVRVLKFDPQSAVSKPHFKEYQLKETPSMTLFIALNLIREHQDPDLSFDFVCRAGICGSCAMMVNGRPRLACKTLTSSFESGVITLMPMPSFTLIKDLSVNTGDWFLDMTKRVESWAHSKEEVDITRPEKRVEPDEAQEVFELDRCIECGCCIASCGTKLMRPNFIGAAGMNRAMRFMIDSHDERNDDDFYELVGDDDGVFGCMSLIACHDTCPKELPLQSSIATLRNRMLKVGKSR
T1 sequence (O06912 1-255 partner): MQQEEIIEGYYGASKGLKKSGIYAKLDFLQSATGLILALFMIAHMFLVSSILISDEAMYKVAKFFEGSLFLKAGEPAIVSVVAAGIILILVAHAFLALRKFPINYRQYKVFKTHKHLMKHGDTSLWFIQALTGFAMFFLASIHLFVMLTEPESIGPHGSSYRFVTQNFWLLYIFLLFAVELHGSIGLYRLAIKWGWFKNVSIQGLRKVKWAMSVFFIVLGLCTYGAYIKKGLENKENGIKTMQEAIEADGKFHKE

[6] = target: T2, Helicobacter pylori fumarate reductase (Helicobacter pylori, UniProt O06913); format: biochemical
T2 construct: Membrane associated proteins were solubilized from the pellet in 150 mM KCl, pH 7.0; endogenous in cells; host or cells: Helicobacter pylori 007 strain; KCl-solubilised fraction (or sonicate supernatant)
T2 sequence (O06913 1-714): T1 sequence (O06913 1-714)
T2 sequence (O06914 1-245 partner): T1 sequence (O06914 1-245 partner)
T2 sequence (O06912 1-255 partner): T1 sequence (O06912 1-255 partner)
Description: 1) Extraction of soluble FRD: Bacteria were harvested by centrifugation at 18,000 g for 10 min at 4° C., and were washed 2 times in an isotonic phosphate saline buffer (50 mM sodium phosphate, pH 7.2, 90 mM NaCl, 5 mM Kcl). Bacteria were lysed in 5 mM Tris-HCl, pH 7.4, for 15 minutes, and centrifuged 18,000 g for 10 minutes. Membrane associated proteins were solubilized from the pellet in 150 mM KCl, pH 7.0, in ice bath for 60 min, and then the supernatant was collected after centrifugation (18,000 g for 10 minutes) for the measurement of FRD activity.
2) Extraction of FRD by sonication: Bacteria were harvested by centrifugation at 18,000 g for 10 min at 4° C., were sonicated, and then the supernatant was collected after centrifugation (18,000 g for 10 minutes) for the measurement of FRD activity.
NADH-FRD activity was determined as the rate of NADH-oxidation upon addition of 1 mM fumarate in the KCl-solubilized fraction or sonicated fraction. The reaction was monitored spectrophotometrically at 340 nm (∈=6.2 mM^−1 cm^−1) using 100 μM NADH and usually 3 mg protein in both reference and sample cuvettes. The measurement was carried out in a Shimadzu UV-190 double-beam spectrophotometer. Protein concentrations were determined using a Bio-Rad protein assay (Bio-Rad Laboratories, 200 Alfred Nobel Dr. Hercules, Calif. 94547, USA).
KCl solubilised fraction of bacteria was incubated with different concentrations of various oxygenated chalcones at 28° C. and the remaining FRD activity was measured. The IC50 values were determined as the concentration at which 50% of the activity was inhibited.

COc1ccc(/C=C/C(=O)c2ccc(O)cc2)cc1OC [3,4m4′hc]
Minimum Cytotoxic Concentration (Vero cell cultures): <1/100 | Minimum inhibitory concentration, Coxsackie virus B4 (Coxsackie virus B4): <1/100 | Minimum inhibitory concentration, Parainfluenza-3 Virus (Parainfluenza-3 Virus): <1/100 | Minimum inhibitory concentration, Reovirus-1 (Reovirus-1): <1/100 | Minimum inhibitory concentration, Simliki forest virus (Simliki forest virus): <1/100 | Minimum inhibitory concentration, Sindbis virus (Sindbis virus): <1/100 | Antiviral activity IC50, AD-169 strain, Assay 1 [1]: 1/45 | Antiviral activity IC50, Davis strain, Assay 1 [2]: 1/55 | Cytotoxicity CC50 [3]: <1/30

O=C(/C=C/c1ccccc1)c1ccc(O)cc1 [4′-OH, 4′-hydroxychalcone]
toxic effects [4]: inconclusive effect | IC50 (Leishmania promastigotes): 16 ± 1 µM | IC50 (human lymphocytes): 28 ± 1 µM | IC50 (Plasmodium falciparum): 21 µM

C=CCOc1ccc(C(=O)/C=C/c2ccc(OC)cc2OC)cc1 [24m4′ac, 2,4-dimethoxy-4′allyloxychalcone]
toxic effects [4]: No toxic effects

COc1ccc(/C=C/C(=O)c2ccc(O)cc2)c(OC)c1 [24m4′hc, 2,4-dimethoxy-4′hydroxychalcone]
toxic effects [4]: No toxic effects | IC50 (Leishmania promastigotes): 48 ± 3 µM | IC50 (human lymphocytes): 71 ± 5 µM | IC50 (Plasmodium falciparum): 11 µM

C=CCOc1ccc(C(=O)/C=C/c2ccc(OC)c(OC)c2)cc1 [34m4′ac, 3,4-dimethoxy-4′-allyloxychalcone]
toxic effects [4]: No toxic effects | Minimum Cytotoxic Concentration (Vero cell cultures): <1/100 | Minimum inhibitory concentration, Coxsackie virus B4 (Coxsackie virus B4): 1/60000 | Minimum inhibitory concentration, Parainfluenza-3 Virus (Parainfluenza-3 Virus): 1/6000 | Minimum inhibitory concentration, Reovirus-1 (Reovirus-1): <1/100 | Minimum inhibitory concentration, Simliki forest virus (Simliki forest virus): 1/2000 | Minimum inhibitory concentration, Sindbis virus (Sindbis virus): 1/60000 | Antiviral activity IC50, AD-169 strain, Assay 1 [1]: <1/30 | Antiviral activity IC50, Davis strain, Assay 1 [2]: 1/100 | Cytotoxicity CC50 [3]: <1/30 | IC50 (Leishmania promastigotes): 60 ± 5 µM | IC50 (human lymphocytes): 51 ± 6 µM | IC50 (Plasmodium falciparum): 32 µM

CCN(CC)CCCC(C)Nc1ccnc2cc(Cl)ccc12 (centres unmarked) [Chloroquine, chloroquine]
mouse lymphoma tk assay, screening design (mouse lymphoma tk; with S9 mix): questionable negative

O=C(O)/C=C/C(=O)O [Fumarate]
activity of succinate dehydrogenase [5]: concentration-dependent inhibitory effect

C[C@H]1[C@H](OC(=O)CCC(=O)O)O[C@@H]2O[C@@]3(C)CC[C@H]4[C@H](C)CC[C@@H]1[C@@]24OO3 [artesunate]
mouse lymphoma tk assay, screening design (mouse lymphoma tk): positive

CCc1nc(N)nc(N)c1-c1ccc(Cl)cc1 [pyrimethamine]
mouse lymphoma tk assay, screening design (mouse lymphoma tk): negative

antimycin [reference compound]
activity of NADH-fumarate reductase [6]: could not inhibit it | activity of succinate dehydrogenase [5]: could no inhibit it

malonate
activity of succinate dehydrogenase [5]: concentration-dependent inhibitory effect
